Test [1] concerns the target T1, human TRPV4 (hTRPV4) (Homo sapiens, UniProt Q9HBA0). Description: cryo-EM structure ([…] Å, open state); EC50 from Fura-2 calcium imaging in HEK […] cells. The test is classed as cell-based. Also noted: with RhoA.
The target in test [2] is T1, human TRPV4 (hTRPV4).
Another test has as its target T2, RhoA (Homo sapiens, UniProt P61586).
T2 construct: endogenous RhoA from HEK 293S cells, co-purified with hTRPV4; with TRPV4
The test can be described thus: cryo-EM structure of the hTRPV4-RhoA complex (ARD-RhoA local refinement, […] Å). The test is classed as binding.

Molecules are shown by their SMILES.

T1 sequence (Q9HBA0 whole entry): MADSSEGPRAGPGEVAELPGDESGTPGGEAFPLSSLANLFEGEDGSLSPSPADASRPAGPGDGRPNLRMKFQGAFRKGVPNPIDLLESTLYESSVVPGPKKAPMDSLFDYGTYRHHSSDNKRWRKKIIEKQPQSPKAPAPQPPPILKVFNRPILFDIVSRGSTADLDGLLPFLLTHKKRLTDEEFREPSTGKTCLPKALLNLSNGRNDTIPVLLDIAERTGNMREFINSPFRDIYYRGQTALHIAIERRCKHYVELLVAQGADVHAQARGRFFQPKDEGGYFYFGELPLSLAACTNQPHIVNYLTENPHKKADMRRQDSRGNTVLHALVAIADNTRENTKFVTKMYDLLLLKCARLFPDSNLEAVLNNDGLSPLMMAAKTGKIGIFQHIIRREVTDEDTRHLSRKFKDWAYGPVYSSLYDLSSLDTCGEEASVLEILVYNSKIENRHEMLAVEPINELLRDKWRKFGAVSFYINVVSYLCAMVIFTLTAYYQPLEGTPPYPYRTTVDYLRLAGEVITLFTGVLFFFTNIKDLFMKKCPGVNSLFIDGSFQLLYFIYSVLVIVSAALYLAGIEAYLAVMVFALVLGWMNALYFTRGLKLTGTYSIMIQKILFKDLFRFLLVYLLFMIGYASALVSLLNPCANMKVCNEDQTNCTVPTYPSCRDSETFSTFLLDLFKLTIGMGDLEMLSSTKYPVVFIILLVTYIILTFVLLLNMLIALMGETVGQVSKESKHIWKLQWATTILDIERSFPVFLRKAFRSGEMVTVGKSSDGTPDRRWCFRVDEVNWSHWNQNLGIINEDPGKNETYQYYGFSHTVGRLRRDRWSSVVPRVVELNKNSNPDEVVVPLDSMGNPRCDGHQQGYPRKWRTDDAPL
T1 sequence (P61586 1-190 partner): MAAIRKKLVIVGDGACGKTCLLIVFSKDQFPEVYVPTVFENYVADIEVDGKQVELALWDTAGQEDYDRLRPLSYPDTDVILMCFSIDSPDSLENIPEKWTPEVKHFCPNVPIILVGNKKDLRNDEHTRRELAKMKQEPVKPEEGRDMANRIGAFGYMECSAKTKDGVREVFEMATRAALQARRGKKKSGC
T2 sequence (P61586 1-190): as the sequence (P61586 1-190 partner) above
T2 sequence (Q9HBA0 whole entry partner): as the sequence (Q9HBA0 whole entry) above

Consider `CCCCCCCCCC(=O)O[C@@H]1[C@@H](C)[C@@]2(O)[C@@H](C=C(CO)C[C@@]3(O)C(=O)C(C)=C[C@@H]23)[C@@H]2C(C)(C)[C@]12OC(=O)CCCCCCCCC` [4α-PDD, 4α-phorbol 12,13-didecanoate], for which the EC50 on human TRPV4 (hTRPV4) [1] is 450 ± 39 nM. Molecule `Cc1c(C(=O)Nc2cccc(C(F)(F)F)c2)cc(-c2ccccc2)n1CCCN1CCOCC1` [HC-067047] gave an IC50 against human TRPV4 (hTRPV4) [2] of 25 ± 6.2 nM. For the molecule `Nc1nc2c(ncn2[C@@H]2O[C@H](CO[P@](=O)(O)OP(=O)(O)O)[C@@H](O)[C@H]2O)c(=O)[nH]1` [GDP, guanosine diphosphate], the “cryo-EM structure of the hTRPV4-RhoA complex (ARD-RhoA local refinement, 3.49 Å)” value at RhoA is recorded as “unambiguously identify the endogenous molecule of guanosine diphosphate (GDP) bound in the RhoA ligand-binding pocket”.

The record behind these values is PMC10290124 (Nature Communications, 2023).
